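1) Cells in 96-well plates. 2) Compound, 48 h, 5 concentrations. 3) Linear interpolation between surrounding doses. 4) Unreached endpoint = highest concentration. TGI: concentration producing complete growth inhibition.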
Experiments:
Assay in all cases: NCI-60 cell line screen, 48 h
[1] = tested on: 786-0 renal
[2] = tested on: A498 renal
[3] = tested on: A549 NSCLC
[4] = tested on: ACHN renal
[5] = tested on: BT-549 breast
[6] = tested on: CAKI-1 renal
[7] = tested on: CCRF-CEM leukemia
[8] = tested on: COLO 205 colon
[9] = tested on: DU-145 prostate
[10] = tested on: EKVX NSCLC
[11] = tested on: HCC-2998 colon
[12] = tested on: HCT-116 colon
[13] = tested on: HCT-15 colon
[14] = tested on: HL-60(TB) leukemia
[15] = tested on: HOP-62 NSCLC
[16] = tested on: HS 578T breast
[17] = tested on: HT29 colon
[18] = tested on: IGROV1 ovarian
[19] = tested on: K-562 leukemia
[20] = tested on: KM12 colon
[21] = tested on: MCF7 breast
[22] = tested on: MDA-MB-231 breast
[23] = tested on: MDA-N
[24] = tested on: MOLT-4 leukemia
[25] = tested on: NCI-H226 lung
[26] = tested on: NCI-H23 lung
[27] = tested on: NCI-H460 lung
[28] = tested on: NCI-H522 lung
[29] = tested on: NCI/ADR-RES ovarian
[30] = tested on: OVCAR-3 ovarian
[31] = tested on: OVCAR-4 ovarian
[32] = tested on: OVCAR-5 ovarian
[33] = tested on: OVCAR-8 ovarian
[34] = tested on: PC-3 prostate
[35] = tested on: SF-268 CNS
[36] = tested on: SF-295 CNS
[37] = tested on: SF-539 CNS
[38] = tested on: SK-MEL-28 melanoma
[39] = tested on: SK-MEL-5 melanoma
[40] = tested on: SK-OV-3 ovarian
[41] = tested on: SN12C renal
[42] = tested on: SNB-19 CNS
[43] = tested on: SNB-75 CNS
[44] = tested on: SR leukemia
[45] = tested on: SW-620 colon
[46] = tested on: T-47D breast
[47] = tested on: TK-10 renal
[48] = tested on: U251 CNS
[49] = tested on: UACC-257 melanoma
[50] = tested on: UACC-62 melanoma
[51] = tested on: UO-31 renal
[52] = tested on: DLD-1 colon
[53] = tested on: DMS 114 small cell lung
[54] = tested on: KM20L2 colon
[55] = tested on: M19-MEL melanoma
[56] = tested on: MALME-3M melanoma
[57] = tested on: RPMI-8226 leukemia
[58] = tested on: RXF 393 renal
[59] = tested on: SNB-78 CNS
[60] = tested on: XF 498 CNS

Q: Which results are given for `C[C@H](CSC(=O)c1ccccc1)C(=O)N1c2ccccc2C[C@H]1C(=O)O`?
A: TGI [1]: > 10 µM; TGI [2]: > 100 µM; TGI [3]: > 100 µM; TGI [4]: > 100 µM; TGI [5]: > 100 µM; TGI [6]: > 100 µM; TGI [7]: > 100 µM; TGI [8]: > 100 µM; TGI [9]: > 100 µM; TGI [10]: > 100 µM; TGI [11]: > 100 µM; TGI [12]: > 100 µM; TGI [13]: > 100 µM; TGI [14]: > 100 µM; TGI [15]: > 100 µM; TGI [16]: > 100 µM; TGI [17]: > 100 µM; TGI [18]: > 100 µM; TGI [19]: > 100 µM; TGI [20]: > 10 µM; TGI [21]: > 100 µM; TGI [22]: > 100 µM; TGI [23]: > 100 µM; TGI [24]: > 100 µM; TGI [25]: > 100 µM; TGI [26]: > 100 µM; TGI [27]: > 10 µM; TGI [28]: > 100 µM; TGI [29]: > 100 µM; TGI [30]: > 100 µM; TGI [31]: > 100 µM; TGI [32]: > 100 µM; TGI [33]: > 100 µM; TGI [34]: > 100 µM; TGI [35]: > 100 µM; TGI [36]: > 100 µM; TGI [37]: > 100 µM; TGI [38]: > 100 µM; TGI [39]: > 100 µM; TGI [40]: > 100 µM; TGI [41]: > 100 µM; TGI [42]: > 100 µM; TGI [43]: > 100 µM; TGI [44]: > 100 µM; TGI [45]: > 100 µM; TGI [46]: > 100 µM; TGI [47]: > 100 µM; TGI [48]: > 100 µM; TGI [49]: > 100 µM; TGI [50]: > 100 µM; TGI [51]: > 100 µM

Q: For `Cc1cccc(C)c1NC(=O)CCCC(=O)C1CC(=O)CCC1=O` (stereo not drawn), which TGI [1] is on record?
A: The TGI was > 100 µM.

Q: What about the TGI [2] of the same compound?
A: Its TGI is > 100 µM.

Q: And the TGI [4]?
A: Its TGI is > 100 µM.

Q: What about the TGI [52] of the same compound?
A: The TGI was > 100 µM.

Q: And the TGI [53]?
A: Its TGI is > 100 µM.

Q: What about the TGI [10] of the same compound?
A: The TGI was > 100 µM.

Q: What about the TGI [11] of the same compound?
A: The TGI was > 100 µM.

Q: And the TGI [12]?
A: The TGI was > 100 µM.

Q: What about the TGI [13] of the same compound?
A: Its TGI is > 100 µM.

Q: And the TGI [15]?
A: The TGI was > 100 µM.

Q: And the TGI [17]?
A: Its TGI is > 100 µM.

Q: And the TGI [54]?
A: The TGI was > 100 µM.

Q: What about the TGI [55] of the same compound?
A: Its TGI is > 100 µM.

Q: What about the TGI [56] of the same compound?
A: Its TGI is > 100 µM.

Q: And the TGI [24]?
A: Its TGI is > 100 µM.

Q: And the TGI [25]?
A: Its TGI is > 100 µM.

Q: And the TGI [26]?
A: The TGI was > 100 µM.

Q: And the TGI [28]?
A: Its TGI is > 100 µM.

Q: And the TGI [30]?
A: The TGI was > 100 µM.

Q: What about the TGI [31] of the same compound?
A: Its TGI is > 100 µM.

Q: What about the TGI [33] of the same compound?
A: Its TGI is > 100 µM.

Q: And the TGI [57]?
A: Its TGI is > 100 µM.

Q: What about the TGI [58] of the same compound?
A: Its TGI is > 100 µM.

Q: What about the TGI [35] of the same compound?
A: Its TGI is > 100 µM.

Q: And the TGI [37]?
A: Its TGI is > 100 µM.

Q: What about the TGI [38] of the same compound?
A: The TGI was > 100 µM.

Q: What about the TGI [40] of the same compound?
A: Its TGI is > 100 µM.

Q: And the TGI [41]?
A: The TGI was > 100 µM.

Q: And the TGI [42]?
A: The TGI was > 100 µM.

Q: And the TGI [43]?
A: Its TGI is > 100 µM.

Q: And the TGI [59]?
A: Its TGI is > 100 µM.

Q: What about the TGI [44] of the same compound?
A: Its TGI is > 100 µM.

Q: What about the TGI [48] of the same compound?
A: The TGI was > 100 µM.

Q: What about the TGI [49] of the same compound?
A: Its TGI is > 100 µM.

Q: What about the TGI [50] of the same compound?
A: Its TGI is > 100 µM.

Q: And the TGI [51]?
A: Its TGI is > 100 µM.

Q: And the TGI [60]?
A: Its TGI is > 100 µM.

— PubChem BioAssay (NCI)
